Values quoted from earlier work in patent publication US5859021A, “Antiviral combinations” (priority 1991, dated 1999).

Tests used:
patients with AIDS = settings: for toxicity in patients: AIDS patients, AZT: long-term therapy
[1] = versus (+) enantiomer
[2] = tested on: normal human bone marrow progenitor cells; settings: combination with high-dose AZT, antiviral activity not affected

Cc1cn([C@H]2C[C@H](N=[N+]=[N-])[C@@H](CO)O2)c(=O)[nH]c1=O [AZT, 3'-azido-3'-deoxythymidine]
inhibition of HIV replication in vitro (HIV; in vitro): inhibit HIV replication in vitro
antiviral activity in combination (HIV; in vitro, with recombinant soluble CD4, castanospermine and recombinant interferon alpha): synergistic antiviral activity
toxicity in patients (patients with AIDS): bone-marrow toxicity
appearance of resistant HIV-1 variants (patients with AIDS; long-term AZT therapy): appearance of AZT-resistant variants of HIV-1
morbidity and mortality (patients with AIDS; patients with AIDS): reduces morbidity and mortality

Nc1ccn([C@@H]2CS[C@H](CO)O2)c(=O)n1 [3TC]
cytotoxicity compared with the (+) enantiomer [1]: considerably lower cytotoxicity than the (+) enantiomer

Nc1ccn([C@@H]2CS[C@H](CO)O2)c(=O)n1 (racemic) [compound of formula (I), (±)-(cis)-4-Amino-1-(2-hydroxymethyl-1,3-oxathiolan-5-yl)-(1H)-pyrimidin-2-one]
antiviral activity against HIV (HIV): having antiviral activity

Nc1ccn([C@H]2CC[C@@H](CO)O2)c(=O)n1 [ddC, 2',3'-dideoxycytidine]
antiviral activity of AZT in combination with ddC (HIV): without affecting its antiviral activity
inhibition of HIV replication in vitro (HIV; in vitro): inhibit HIV replication in vitro
toxicity in patients (patients with AIDS): peripheral neurophathy
effect on bone marrow cytotoxicity of high-dose AZT [2]: eliminates the bone marrow cytotoxicity of high-dose AZT

OC[C@@H]1CC[C@H](n2cnc3c(O)ncnc32)O1 [ddI, 2',3'-dideoxyinosine]
inhibition of HIV replication in vitro (HIV; in vitro): inhibit HIV replication in vitro
toxicity in patients (patients with AIDS): pancreatitis and peripheral neuropathy
